From patent US20230172957A1, “USE OF ASTRAGALUS MEDICINAL COMPOSITION FOR PREPARING DRUG FOR ENHANCING CANCER THERAPY” (PHYTOHEALTH CORPORATION, priority 2020, published 2023)
Where “and” joins values, the source holds several entries; their conditions need not be identical. Equal values may be shown once.

What was measured:
OVCAR cells = assay: Cell viability of ovarian cancer cell line measured by MTS (poisonous dose test and chemotherapeutic synergism); type: cell-based
Experimental: (1) Poisonous dose test (the chemotherapy drug dose for inhibiting the cell growth and leaving 60˜70% of growth capability is selected for subsequent test). (2) The cells are inoculated in 96-well plate and cultured for 24 hours. (3) Test drugs at different concentrations are added in, the test concentrations of the r-APS are 0, 2 and 4 mg/ml, the test concentrations of the astragalus pharmaceutical composition comprising the r-APS and the mannose (r-APS+mannose) are 0, 5 and 10 mg/ml. (4) The dose with a poisoning effect on 35-40% of individual cells is selected as chemotherapy drug dose. (5) The cell viability is tested in 48 and 72 hours respectively after addition. (6) Experiment on chemotherapeutic synergism of the r-APS and the astragalus pharmaceutical composition comprising the r-APS and the mannose (r-APS+mannose). (7) The cells are inoculated in 96-well plate and cultured for 24 hours. (8) The r-APS or the astragalus pharmaceutical composition comprising the r-APS and the mannose (r-APS+mannose) in combination with chemotherapy drug are cultured for 48 hours, the dose of the r-APS and the astragalus pharmaceutical composition comprising the r-APS and the mannose (r-APS+mannose) is three poisonous doses for test, the cell viability is measured by MTS in 48 hours.

HCT116 cells = assay: Cell viability of colorectal cancer cells measured by MTS (poisonous dose test and chemotherapeutic synergism); type: cell-based
Experimental: (1) First of all, poisonous dose test (the chemotherapy drug dose for inhibiting the cell growth and leaving 60˜70% of growth capability is selected for subsequent test) (2) The cells are inoculated in 96-well plate and cultured for 24 hours. (3) Test drugs at different concentrations are added in, the test concentrations of the r-APS are 0, 2 and 4 mg/ml, the test concentrations of the astragalus pharmaceutical composition comprising the r-APS and the mannose (r-APS+mannose) are 0, 5 and 10 mg/ml. (4) The dose with a poisoning effect on 35˜40% of individual cells is selected as chemotherapy drug dose. (5) The cell viability is tested in 48 and 72 hours respectively after addition. (6) Experiment on chemotherapeutic synergism of the r-APS and the astragalus pharmaceutical composition comprising the r-APS and the mannose (r-APS+mannose): (7) The cells are inoculated in 96-well plate and cultured for 24 hours. (8) The r-APS or the astragalus pharmaceutical composition comprising the r-APS and the mannose (r-APS+mannose) in combination with chemotherapy drug are cultured for 48 hours, the doses of the r-APS and the astragalus pharmaceutical composition comprising the r-APS and the mannose (r-APS+mannose) are selected four poisonous doses for test, and then the cell viability is measured by MTS in 48 hours.

[1] = Olaparib 0.2M, poisonous dose test
[2] = Olaparib 0.4M, poisonous dose test
[3] = Olaparib 0.6M, poisonous dose test
[4] = Olaparib 0.8M, poisonous dose test
[5] = Olaparib 1M, poisonous dose test
[6] = Olaparib alone (0 mg/ml test drug), 48 hours
[7] = Regorafenib 0.01 mM alone (0 mg/ml test drug), HCT116, 48 hours
[8] = Regorafenib 0.01 mM, HCT116, poisonous dose test

O=C(c1cc(Cc2n[nH]c(=O)c3ccccc23)ccc1F)N1CCN(C(=O)C2CC2)CC1 [Olaparib]
Cell viability (%) (OVCAR cells; [1]): 100.55% | Mean value (MEAN) of three repeats (raw reading) (OVCAR cells; [1]): 0.984 | Cell viability (%) (OVCAR cells; [2]): 90.32% | Mean value (MEAN) of three repeats (raw reading) (OVCAR cells; [2]): 0.884 | Cell viability (%) (OVCAR cells; [3]): 75.13% | Mean value (MEAN) of three repeats (raw reading) (OVCAR cells; [3]): 0.735 | cell viability of cancer cells poisoned to (OVCAR cells; Olaparib 0.7M, poisonous dose test): 60% | Cell viability (%) (OVCAR cells; [4]): 48.72% | Mean value (MEAN) of three repeats (raw reading) (OVCAR cells; [4]): 0.477 | Cell viability (%) (OVCAR cells; [5]): 18.74% | Mean value (MEAN) of three repeats (raw reading) (OVCAR cells; [5]): 0.183 | Cell viability (%) (OVCAR cells; [6]): 60.189% and 61.4% | Mean value (MEAN) of three repeats (raw reading) (OVCAR cells; [6]): 0.595 and 0.605

CNC(=O)c1cc(Oc2ccc(NC(=O)Nc3ccc(Cl)c(C(F)(F)F)c3)c(F)c2)ccn1 [Regorafenib]
viability at 0.01 µM (HCT116 cells; Homo sapiens, HCT-116, Regorafenib 0.00001 mM, HCT116, poisonous dose test): 110% | viability at 0.1 µM (HCT116 cells; Homo sapiens, HCT-116, Regorafenib 0.0001 mM, HCT116, poisonous dose test): 107% | viability at 1 µM (HCT116 cells; Homo sapiens, HCT-116, Regorafenib 0.001 mM, HCT116, poisonous dose test): 94.4% | viability at 10 µM (HCT116 cells; Homo sapiens, HCT-116, Regorafenib 0.01 mM, HCT116, poisonous dose test): 60% | viability at 100 µM (HCT116 cells; Homo sapiens, HCT-116, Regorafenib 0.1 mM, HCT116, poisonous dose test): 9.2% | Mean value (MEAN) of three repeats (raw reading) (HCT116 cells; Regorafenib 0.00001 mM, HCT116, poisonous dose test): 1.103 | Mean value (MEAN) of three repeats (raw reading) (HCT116 cells; Regorafenib 0.0001 mM, HCT116, poisonous dose test): 1.075 | Mean value (MEAN) of three repeats (raw reading) (HCT116 cells; Regorafenib 0.001 mM, HCT116, poisonous dose test): 0.950 | Cell viability (%) (HCT116 cells; [7]): 71.4% and 71.43% | Mean value (MEAN) of three repeats (raw reading) (HCT116 cells; [7]): 0.641 | Cell viability (%) (HCT116 cells; [8]): 63.5% | Mean value (MEAN) of three repeats (raw reading) (HCT116 cells; [8]): 0.639 | Mean value (MEAN) of three repeats (raw reading) (HCT116 cells; Regorafenib 0.1 mM, HCT116, poisonous dose test): 0.093
